Results: publication PMC10463010 (RSC Advances, 2023)

Assays:
[1] = test system: NO production in RAW264.7 stimulated by LPS; assay: NO production in LPS-stimulated RAW 264.7; type: cell-based; details: Mus musculus, RAW264.7, read-out: % inhibition of NO production
[2] = Cytotoxic effect on RAW 264.7 using MTT assay; type: cell-based; details: mouse, RAW 264.7 cells
[3] = molecular target: acetylcholinesterase (AChE) (Homo sapiens, UniProt P22303); assay: Acetylcholinesterase inhibition assay; type: biochemical
Sequence of acetylcholinesterase (AChE) (P22303 32-614, species assumed): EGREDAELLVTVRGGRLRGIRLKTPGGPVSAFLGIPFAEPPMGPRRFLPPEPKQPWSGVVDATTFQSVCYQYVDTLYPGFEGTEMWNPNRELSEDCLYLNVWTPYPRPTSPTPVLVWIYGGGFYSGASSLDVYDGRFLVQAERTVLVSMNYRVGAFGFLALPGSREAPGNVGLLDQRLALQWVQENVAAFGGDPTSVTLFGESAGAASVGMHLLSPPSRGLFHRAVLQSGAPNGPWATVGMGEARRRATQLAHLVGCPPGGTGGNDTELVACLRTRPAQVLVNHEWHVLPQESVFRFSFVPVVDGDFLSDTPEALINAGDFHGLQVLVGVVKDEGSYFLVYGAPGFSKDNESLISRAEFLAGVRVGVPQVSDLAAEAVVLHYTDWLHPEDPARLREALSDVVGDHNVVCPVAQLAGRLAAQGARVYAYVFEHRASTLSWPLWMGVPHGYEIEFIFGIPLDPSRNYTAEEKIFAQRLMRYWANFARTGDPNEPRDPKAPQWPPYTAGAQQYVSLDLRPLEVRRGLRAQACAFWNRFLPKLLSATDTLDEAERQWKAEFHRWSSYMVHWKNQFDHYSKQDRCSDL

[4] = In vitro hydrolysis / chemical stability in buffers; type: physicochemical; details: 0.1 M HCl (simulated gastric conditions), pH 1.4
IL-6 = IL-6 level in LPS-induced RAW 264.7; type: cell-based
TNF-α = TNF-α level in LPS-induced RAW 264.7; type: cell-based; details: RAW 264.7, in comparison to LPS treated cells
IL-1β = IL-1β level in LPS-induced RAW 264.7; type: cell-based; details: RAW 264.7, in comparison to LPS treated cells
SK-N-SH Cells = details: Aβ-induced SK-N-SH cells, increased from 20%; cited from earlier work
TNF = details: 20 μM, LPS stimulated RAW264.7; cited from earlier work

Structure (SMILES)	inhibition at 25 µM [1] [%]	viability at 24 h, 50 µM [2] [%]	also measured
Cc1ccc(C(C)C)c(OC(=O)Cn2cc(COC(=O)Cn3cnc4c3c(=O)n(C)c(=O)n4C)nn2)c1 [15b, (1-(2-(2-Isopropyl-5-methylphenoxy)-2-oxoethyl)-1H-1,2,3-triazol-4-yl)methyl-2-(1,3-dimethyl-2,6-dioxo-1,2,3,6-tetrahydro-7H-purin-7-yl)acetate]	68.6 ± 0.92	97 ± 0.6	
Cn1c(=O)c2c(ncn2CC(=O)OCc2cn(-c3cc(=O)oc4ccccc34)nn2)n(C)c1=O [15c, (1-(2-Oxo-2H-chromen-4-yl)-1H-1,2,3-triazol-4-yl)methyl-2-(1,3-dimethyl-2,6-dioxo-1,2,3,6-tetrahydro-7H-purin-7-yl)acetate]	85 ± 0.88	88 ± 0.8	IC50 [3]: 9.8 ± 0.7 µM
Cn1c(=O)c2c(ncn2CC(=O)N/N=C/c2ccccc2)n(C)c1=O [18a, E-N′-Benzylidene-2-(1,3-dimethyl-2,6-dioxo-1,2,3,6-tetrahydro-7H-purin-7-yl)acetohydrazide]	65.4 ± 0.84	94 ± 0.2	
Cn1c(=O)c2c(ncn2CC(=O)N/N=C/c2ccc(O)cc2)n(C)c1=O [18b, (E)-2-(1,3-Dimethyl-2,6-dioxo-1,2,3,6-tetrahydro-7H-purin-7-yl)-N′-(4-hydroxybenzylidene)acetohydrazide]	71.8 ± 0.9	87 ± 0.8	
COc1ccc(OC)c(/C=N/NC(=O)Cn2cnc3c2c(=O)n(C)c(=O)n3C)c1 [18c, E-N′-(2,5-Dimethoxybenzylidene)-2-(1,3-dimethyl-2,6-dioxo-1,2,3,6-tetrahydro-7H-purin-7-yl)acetohydrazide]	75 ± 0.88	88 ± 0.8	
COc1ccc(/C=N/NC(=O)Cn2cnc3c2c(=O)n(C)c(=O)n3C)cc1OC [18d, E-N′-(3,4-Dimethoxybenzylidene)-2-(1,3-dimethyl-2,6-dioxo-1,2,3,6-tetrahydro-7H-purin-7-yl)acetohydrazide]	70.7 ± 0.87	90 ± 1	
COc1cc(/C=N/NC(=O)Cn2cnc3c2c(=O)n(C)c(=O)n3C)cc(OC)c1OC [18e, (E)-2-(1,3-Dimethyl-2,6-dioxo-1,2,3,6-tetrahydro-7H-purin-7-yl)-N′-(3,4,5-trimethoxybenzylidene)acetohydrazide]	71.8 ± 0.9	92 ± 1	
COc1cccc(/C=N/NC(=O)Cn2cnc3c2c(=O)n(C)c(=O)n3C)c1 [18f, (E)-2-(1,3-Dimethyl-2,6-dioxo-1,2,3,6-tetrahydro-7H-purin-7-yl)-N′-(3-methoxybenzylidene)acetohydrazide]	63.2 ± 0.93	91 ± 1	
Cn1c(=O)c2c(ncn2CC(=O)N/N=C/c2ccccc2O)n(C)c1=O [18g, (E)-2-(1,3-Dimethyl-2,6-dioxo-1,2,3,6-tetrahydro-7H-purin-7-yl)-N′-(2-hydroxybenzylidene)acetohydrazide]	66.4 ± 0.79	92 ± 1	
Cn1c(=O)c2c(ncn2CC(=O)N/N=C/c2ccc3c(c2)OCO3)n(C)c1=O [18h, (E)-N′-(Benzo[d][1,3]dioxol-5-ylmethylene)-2-(1,3-dimethyl-2,6-dioxo-1,2,3,6-tetrahydro-7H-purin-7-yl)acetohydrazide]	96.6 ± 0.87	93 ± 1	
COc1ccc(/C=N/NC(=O)Cn2cnc3c2c(=O)n(C)c(=O)n3C)cc1O [18i, (E)-2-(1,3-Dimethyl-2,6-dioxo-1,2,3,6-tetrahydro-7H-purin-7-yl)-N′-(3-hydroxy-4-methoxybenzylidene)acetohydrazide]	63.2 ± 0.93	105 ± 1.2	
COc1cc(/C=N/NC(=O)Cn2cnc3c2c(=O)n(C)c(=O)n3C)ccc1O [18j, (E)-2-(1,3-Dimethyl-2,6-dioxo-1,2,3,6-tetrahydro-7H-purin-7-yl)-N′-(4-hydroxy-3-methoxybenzylidene)acetohydrazide]	92.2 ± 0.86	89 ± 1	IC50 [3]: 14.6 ± 0.5 µM
COc1ccc(/C=N/NC(=O)Cn2cnc3c2c(=O)n(C)c(=O)n3C)cc1 [18l, (E)-2-(1,3-Dimethyl-2,6-dioxo-1,2,3,6-tetrahydro-7H-purin-7-yl)-N′-(4-methoxybenzylidene)acetohydrazide]	85.4 ± 0.87	93 ± 1	
COC(=O)[C@@H](N)CCCNC(N)=N[N+](=O)[O-] [L-NAME, L-NG-nitro arginine methyl ester, reference compound]			inhibition at 250 µM [1]: 84.8 ± 0.9%
Cn1c(=O)c2c(ncn2CC(=O)O)n(C)c1=O [compound 2, theophylline-7-acetic acid, reference compound]	58.7 ± 1.82	85 ± 1.7	
Cn1c(=O)c2c(ncn2CC(=O)N/N=C2/C(=O)Nc3ccccc32)n(C)c1=O [compound 19, (E)-2-(1,3-Dimethyl-2,6-dioxo-1,2,3,6-tetrahydro-7H-purin-7-yl)-N′-(2-oxoindolin-3-ylidene)acetohydrazide]	90 ± 0.88	89.5 ± 1.1	half-life at 75 μM [4]: 1.8 h; IC50 [3]: 3.3 ± 0.2 µM; Decrease of IL-6 levels (IL-6; 1 μM, RAW 264.7, in comparison to cells induced by LPS): 47.5%; Decrease of IL-6 levels (IL-6; 10 μM, RAW 264.7, in comparison to LPS treated cells): 57.7%; Reduction of TNF-α (TNF-α; 1 μM): 31.8%; Reduction of TNF-α (TNF-α; 10 μM): 53%; Reduction of IL-1β (IL-1β; 1 μM): 49.4%; Downregulation of IL-1β (IL-1β; 10 μM): 66.7%
NC(=S)NN=C1C(=O)Nc2ccccc21 [isatin thiosemicarbazone]			Survival rate (SK-N-SH Cells): approximately 100%
Cn1c(=O)c2[nH]cnc2n(C)c1=O [theophylline]			Effect on TNF production (TNF): suppress TNF production
